For assay [1], the system named is MIAC51 (chloroleukemia cells). Description: Chloroleukemia (MIAC51) in rats: cure / survival under chemotherapy with topical calcitriol. The class given is in vivo, rat. To be noted: CTX, after Two Rounds of Chemotherapy. The procedure: For experiments in which rats were transplanted with chloroleukemia, on Day 5 after birth, rats were randomly divided into three groups of 45 each. All rats received 1×10^5 chloroleukemic cell line MIAC51 (i.p.) in 0.1 mL of serum free (SF) RPMI. MIAC51 were cultured in RPMI 1640 supplemented with L-glutamine and 10% fetal bovine serum at 37° C. in a 5% CO2, 100% humidity incubator. Cells were grown to 50% confluency (1.5×106 mL) collected in 50 mL conical tubes, centrifuged at 600 g×10 min. at room temperature and resuspended in SF-RPMI at a concentration of 1×10^6/mL. Group 1 rats received no further treatment. Group 2 rats received topical vehicle and CTX on day 13. […] Topical applications were performed as described above.
On day 23 after birth, a sample of blood was taken from all rats and differentials performed. Rats with leukemia were sacrificed, rats without leukemia were kept and a second differential performed on day 31, at any point if leukemia was detected, animals were sacrificed by CO2 asphyxiation.
On day 5 after birth all rats received 1×105 MIAC51 intraperitoneally in 0.1 mL of serum free (SF) RPMI. MIAC51 were cultured in RPMI 1640 supplemented with L-glutamine and 10% fetal bovine serum at […] in a 5% CO2, 100% humidity incubator. Cells were grown to 50% confluency (1.5×106 mL) collected in 50 mL conical tubes, centrifuged at 600 g for 10 minutes at room temperature and resuspended in SF-RPMI at a concentration of 1×10^6/mL prior to injection.
[…]

Another assay deals with Long Evans rats. Nature of the assay: CIA in chloroleukemic Long Evans rats receiving multi-course chemotherapy. The class given is in vivo, rat. To be noted: for ALOPECIA 4+ (number of rats): Cyclophosphamide (CTX).

Molecules are shown by their SMILES.

For `O=P1(N(CCCl)CCCl)NCCCO1` (centres unmarked) [CTX, Cyclophosphamide], the “Survival Rate, %” value in assay [1] turned out to be 20%. Further, the “Cured (number of rats)” value in assay [1] (of 40) worked out at 8. In addition, the “ALOPECIA 4+ (number of rats)” value with Long Evans rats (after First Round of Chemotherapy) is on record as 40; with Long Evans rats (after Second Round of Chemotherapy), 8. Further, in the assay with Long Evans rats (cyclophosphamide regimen, after the first round of chemotherapy), the “extent of alopecia (grade), all rats” value is on record as “+4”.

The values are drawn from patent US20230302022A1, “PREVENTING OR MITIGATING CHEMOTHERAPY INDUCED ALOPECIA USING VITAMIN D” (priority 2016, published 2023).
